Laboratory results reported in patent publication US9161944B2, “Method for preventing cancer metastasis” (INSERM (INSTITUT NATIONAL DE LA SANTE ET DE LA SANTE ET DE …, priority 2010, dated 2015).

How the values were obtained:
SK3/KCa2.3 channel [1] = target: T1, SK3/KCa2.3 channel (Homo sapiens, UniProt Q9UGI6); test: Whole-cell patch clamp, apamin-sensitive current in MDA-MB-435s; assay type: cell-based; design: effect of JPH1701 on the SK3 activity in MDA-MB-435s cells using patch clamp technique; endogenous in cells; host or cells: MDA-MB-435s wild type
Experimental: FIG. 7: Effects of a 24 hours application of JPH1701 at 1 μM on whole cell current in MDA-MB-435s Wild Type (WT). FIG. 7A) Illustrations of currents recorded on MDA-MD-435s. On the top, current were recorded on MDA-MB-435s in control condition. At the bottom, current were representative of a cell which was treated with JPH1701 1 μM during 24 hours. FIG. 7B) Effects of JPH1701 on apamin-sensitive currents. Cells were incubated with JHP1701 at 1 μM during 24 hours then currents were measured in absence or with apamin, a specific blocker of the SK3/KCa2.3 channel. Histograms show the amplitude of currents inhibited by apamin. After JPH1701 treatment apamin-sensitive current were abolished. […]
(§1) Briefly, experiments were conducted using Axopatch 200B patch-clamp amplifier (Axon Instrument) and data, digitized with 1322-A Digidata converter (Axon Instrument), were stored on a computer using Clampex of pClamp 9.2 software (Axon Instru-ment). The patch-clamp data was analyzed using both Clampfit 9.2 and Origin 7.0 software (Microcal Inc., Northampton, Mass., USA).
The pipette solution for the whole-cell recordings contained (in mM): K-glutamate 125, KCl 20, MgCl2 1, Mg-ATP 1, HEPES 10, and pH was adjusted to 7.2 with KOH and various concentrations of CaCl2 and EGTA were added to obtain calculated pCa=7 (0.37 mM CaCl2 and 10 mM EGTA) or pCa=6.4 (0.7 mM CaCl2 and 1 mM EGTA). […]

[2] = tested on: MDA-MB-435s cells expressing luciferase; test: Experimental metastasis model, cells injected into tail vein, BLI; assay type: in vivo, NMRI nude mice
Experimental: Female NMRI nude mice, 6 weeks old, were purchased from Janvier laboratories. Mice were bred and housed at INSERM, U892, University of Nantes, under the animal care license no 44565.
MDA-MB-435s were incubated with 1 μM JPH1701 or with 2% DMSO/3% ethanol (vehicle) during 24 h and injected (0.75 106) in iv into the lateral tail vein. Next, mice were treated three times a week for 12 weeks with JPH1701 at 15 mg/kg in i.v. or with vehicle.
All of the mice were assessed weekly using whole-body bioluminescent imaging to quantify relative amounts of metastasis burden (ΦImageur™; BIOSPACE Lab, France). Each mouse was given potassium salt of D-luciferin (Interchim) at dose of 150 mg/kg body weight by intraperitoneal injection and anesthetized with Ketamin/xylasin i.p. injection. […] Regions of interest were drawn around the experimental metastases. The amount of metastasis burden within each region of interest was quantified as the relative amount of light produced from the luciferase activity in breast cancer cells and expressed in cpm using the Photovision+ software (version 1.3; Biospace Lab). At necropsy, ex vivo BLI measurement were performed for each tissues collected.
To determine whether a SK3/KCa2.3 blocker such as JPH1701 could prevent metastasis development, we used a model of experimental metastasis with MDA-MB-435s cells expressing the firefly luciferase gene. Cancer cells were injected directly to the systemic circulation into the vein tail. One cohort of mice was treated with JPH1701 three times a week for 12 weeks by i.v. administration. Another cohort was treated with the vehicle in the same conditions. At the end of treatment, metastases were visualized in vivo by bioluminescence imaging (BLI) in 70% (7/10) of control mice and only in 40% (4/10) of JPH1701 treated-mice (Table 4). To go further, mice were sacrificed and detection of metastases in different tissues was performed ex vivo by BLI. The number of positive tissues from each cohort was show in Table 4. Metastatic lesions were detected in all vehicle-treated mice.

SK3/KCa2.3 channel [3] = target: T1, SK3/KCa2.3 channel; test: Whole-cell patch clamp on HEK293 cells expressing SK3; assay type: cell-based; design: expressed in transfected cells; host or cells: HEK293, lentiviral transduction, clonal selection
Experimental: The percentages of inhibition represent the ratio (SK3 current amplitude and chord conductance (in the presence of 10 μM JPH1701)/SK3 current amplitude in control experiments). Black bars show current at 0 mV and grey bars indicate the chord conductance. […] Columns, mean, bars, SEM, (5 cells for racemic mix and 4 cells for + and − forms).
MDA-MB-435s and HEK293 cells were transduced with lentiviral vector at multiplicities of infection (MOI) of 1 to 3 in the presence of polybrene (4 μg/ml, Sigma).
Experiments were performed with cells seeded into 35-mm Petri dishes at 3000 cells per cm2. All experiments were performed using the conventional whole-cell recording configuration of the patch-clamp technique as previously described. PCa solution was 7 and 6.4 respectively for MDA-MB-435s and HEK293-SK3/KCa2.3 cells.
as §1
The pipette solution for the whole-cell recordings contained (in mM): K-glutamate 125, KCl 20, MgCl2 1, Mg-ATP 1, HEPES 10, and pH was adjusted to 7.2 with KOH and various concentrations of CaCl2 and EGTA were added to obtain calculated pCa=7 (0.37 mM CaCl2 and 10 mM EGTA) or pCa=6.4 (0.7 mM CaCl2 and 1 mM EGTA).
We next developed HEK cells expressing SK3/KCa2.3 channel in order to test directly analogues on SK3 activity measured using patch-clamp technique (FIG. 8). […] The JPH1701-induced inhibition of SK3 current was analysed at 0 mV and the entire time course of the experiment is depicted in FIG. 8A.
Current activity has been measured in HEK 293 LvSK3 and in MDA-MB-435s cells. The percentages represent the inhibition of current and of conductance by compounds on SK3 channel in HEK 293 cells.

[4] = 15 mg/kg i.v. three times a week, 12 weeks, N = 10
[5] = 15 mg/kg i.v., 12 weeks, N = 10

“hexadecyloxy-2-O-methyl-sn-glycerol-lactose [JPH1701]” was tested, and the “Apamin-sensitive current after treatment” value (SK3/KCa2.3 channel [1]; 1 μM for 24 h, FIG. 7B) was “totally abolished”, the “Apamin-sensitive current in MDA-MB-435s” value (SK3/KCa2.3 channel [1]; wild-type cells, residual current abolished by apamin) was 0.071 ± 0.215 pA/pF and the “Adverse effects in mice” value ([2]; 15 mg/kg i.v. three times a week for 12 weeks) was “No adverse effects”. For the same substance, the “Number of mice with experimental metastases detected ex vivo by BLI” value [2, 4] was 7, the “Number of mice with experimental metastases detected in vivo by BLI” value [2, 4] was 4 and the “Mice with no sign of metastasis development ex vivo” value ([2]; 15 mg/kg i.v., 12 weeks) was 30%. For the same substance, the “Number of tissues with metastases detected by BLI: column” value [2, 5] was 2, the “Number of tissues with metastases detected by BLI: kidney” value [2, 5] was 0 and the “Number of tissues with metastases detected by BLI: leg” value [2, 5] was 3. The “Number of tissues with metastases detected by BLI: liver” value [2, 5] was 0, the “Number of tissues with metastases detected by BLI: lung” value [2, 5] was 5 and the “Number of tissues with metastases detected by BLI: lymph node” value [2, 5] was 1. The “Number of tissues with metastases detected by BLI: ovary/uterus” value [2, 5] was 0, the “Number of tissues with metastases detected by BLI: spleen” value [2, 5] was 0 and the “Mice with metastases visualized in vivo by BLI at the end of treatment” value ([2]; 15 mg/kg i.v., 12 weeks, control 70%) was 40%. For the same substance, the Metastatic profile ([2]; FIGS. 10A-D) was “shifted the metastatic profile toward a less one”, the “Additional wait until 75% of mice present detectable metastases (vehicle: week 4)” value ([2]; mice with metastases in vivo on week 12) was 3 weeks and the “Metastasis appearance, times faster in control group than in treated group” value ([2]; mice with metastases in vivo on week 12, FIG. 10E) was “roughly 3 times”. For the same substance, the “Effect on SK3 current amplitude at 0 mV” value (SK3/KCa2.3 channel [3]; 10 μM, FIG. 9B, ranking SK3>SK1) was “significantly reduced”, the “Reduction of the amplitude of the SK3 current at 0 mV” value (SK3/KCa2.3 channel [3]; 10 μM, after 120 sec) was “about 70%” and the “Time needed to reduce 50% of the amplitude of the current” value (SK3/KCa2.3 channel [3]; 0.3, 1 and 10 μM, whatever the concentration) was “approximately 40 sec”. For the same substance, the Conductance decreasing (SK3/KCa2.3 channel [3]; HEK 293 LvSK3 cells) was 66.1 ± 1.5% and the “Inhibition of I at 0 mV” value (SK3/KCa2.3 channel [3]; HEK 293 LvSK3 cells, 10 μM stated for JPH1701) was 70.1 ± 1.4%.
